Measurements taken from the METLIN SMRT retention time set (Domingo-Almenara et al. 2019).

Experiment: gradient 5% acetonitrile 3 min, to 50% in 2 min, to 85% in 15 min, held 3 min, 100 µL/min
Settings: column: Zorbax Extend-C18 2.1 x 50 mm; eluents: water / acetonitrile, 0.1% formic acid
Method in brief: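 Retention time was recorded from adduct peaks, which were picked computationally and each inspected manually. Pure standards ran in mixtures of ~100 molecules on HPLC coupled to a quadrupole time-of-flight mass spectrometer, in positive and negative ionization mode, through a Zorbax Extend-C18 column (2.1 × 50 mm, 1.8 μm) at 100 μL/min. Eluents were water and acetonitrile, each with 0.1% formic acid.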

| RP-LC retention time | SMILES |
| --- | --- |
| 680 s | CC(C)N1CCn2c(nc3cc(C(=O)NCc4ccc5c(c4)OCO5)ccc32)C1=O |
| 686 s | Cc1ccc(CN2CC(Oc3ccc(-c4noc(C5CCOCC5)n4)cc3)C2)o1 |
| 565 s | CC(C)n1cnc2ccc(-c3noc(CSc4ccncc4)n3)cc21 |
| 746 s | Cc1ccc2nc(-c3cccc(Cl)c3)c(Nc3ccc4c(c3)OCO4)n2c1 |
| 1010 s | COc1ccc(Cl)cc1NC(=O)N1CCCC1c1nc(-c2ccccc2OC)no1 (centres undefined) |
| 865 s | c1cc2c(cc1-c1nnc(C3CCC3)o1)OCO2 |
| 974 s | Fc1cccc(-c2noc(Cc3nnc(-c4ccccc4)o3)n2)c1 |
| 923 s | CCN1C(=O)COc2ccc(-c3noc(Cc4ccc(OC)c(OC)c4)n3)cc21 |
| 582 s | COc1ccc(C2NCCc3c2[nH]c2ccccc32)cc1O (centres undefined) |
| 1080 s | CCCn1c(=O)sc2cc(S(=O)(=O)N3CCC(C(=O)N4c5ccccc5CC4C)CC3)ccc21 (centres undefined) |
| 895 s | CCSc1nnc(NC(=O)Cc2cc(-c3ccc4c(c3)CC(C)O4)on2)s1 (centres undefined) |
| 841 s | Cc1ccc(F)cc1NC(=O)Cn1c(=O)nc(N2CCCCC2)c2ccccc21 |
| 1130 s | COc1ccc(-c2nc(-c3cccc(-c4ccnn4C)c3)no2)cc1F |
| 666 s | O=C(Cn1nc2nc(N3CCOCC3)ccn2c1=O)Nc1ccc(F)c(F)c1 |
| 593 s | Cn1nc(-c2ccc(F)cc2)cc1C(=O)NCCN1CCN(C(=O)c2cccs2)CC1 |
| 938 s | COc1cccc(NC(=O)CSc2cc(N3CCN(c4ccccc4OC)CC3)ncn2)c1 |
| 650 s | CC(C)CCN(C1CCOCC1)C1CCN(C(=O)Nc2cccc(F)c2)CC1 |
| 630 s | O=C(c1cnc[nH]1)N1CC(F)(F)C[C@H]1c1nc(C2CC2)no1 |
| 829 s | Cc1cc(C)cc(C(=O)N2CCC(c3noc(N)c3C(C)C)CC2)c1 |
| 916 s | COc1cc(-c2noc(Cc3nnc(-c4ccc(F)cc4)o3)n2)cc(OC)c1OC |
| 837 s | CC(=O)c1ccc(NC(=O)c2cnc(-c3ccc(F)cc3)nc2-c2ccncc2)cc1 |
| 694 s | O=C(Nc1ccc2c(c1)OCO2)C1CC(=O)N(c2n[nH]c3cccc(F)c23)C1 (centres undefined) |
| 923 s | CCCN1C(=O)c2c(C(=O)NCc3ccc(OC(C)C)cc3)ncn2CC1(C)C(=O)NC1CCCC1 (centres undefined) |

Second part, the compound before the results:

| SMILES | RP-LC retention time |
| --- | --- |
| CCNC(=O)N1CCCC(c2cccc(C(=O)NC3CCCCC3)c2)C1 (centres undefined) | 817 s |
| O=C(c1cccc([N+](=O)[O-])c1)N1CCN(C(c2ccccc2)c2ccccc2)CC1 | 757 s |
| Cc1ccc(NC(=O)c2[nH]c3cc(C)sc3c2CN(C)C)c(Cl)c1 | 708 s |
| O=C(C1CCN(c2ncccc2-c2nc(-c3cccc(F)c3)no2)CC1)N1CCC2(CC1)OCCO2 | 1010 s |
| O=c1c2ccccc2c2ccccc2c(=O)n1Cc1ccco1 | 966 s |
| COc1ccc(F)c(F)c1C(=O)c1cnc(NC2CCN(S(C)(=O)=O)CC2)nc1N | 784 s |
| Cc1ccc(Cl)cc1NC(=O)c1cc2ccccc2cc1O | 1180 s |
| CCNC(=O)C1CCc2sc(C(=O)N(CC)CC)cc2C1 (centres undefined) | 660 s |
| Cn1c(=O)sc2cc(S(=O)(=O)N3CCC(C(=O)NCc4ccccc4Cl)CC3)ccc21 | 883 s |
| Nc1ccc(-c2ccc3ncc4ccc(=O)n(-c5cccc(C(F)(F)F)c5)c4c3c2)cn1 | 653 s |
| C=C1C[C@@]23CC[C@H]4[C@@](C)(CCC[C@@]4(C)C(=O)O)[C@@H]2CC[C@]1(O)C3 | 1030 s |
| O=C(c1cc(-c2ccncc2)n[nH]1)N1CCCC(C(=O)N2CCN(c3ncccn3)CC2)C1 (centres undefined) | 579 s |
| CCOC(=O)c1c(C)[nH]c(C(=O)N2CCCC(C(=O)NC3CCCCCC3)C2)c1C (centres undefined) | 892 s |
| CCCCOc1cc(CC2CNC(=O)N2)ccc1OC (centres undefined) | 798 s |
| O=C(C1CC1)N1CCC2(CCCCO2)CC1 | 668 s |
| CC(=O)c1ccc(N2CCN(C(=O)CN3C(=O)C4C5C=CC(C5)C4C3=O)CC2)cc1 (centres undefined) | 644 s |
| COCc1cc(=O)n(CC(=O)Nc2cc(C)ccc2C)c(N)n1 | 631 s |
| CCCS(=O)(=O)N1CC(=O)N(c2cccc(Cl)c2C)C(C)(C(=O)NC2CCCCC2)C1 (centres undefined) | 1010 s |

| SMILES | RP-LC retention time |
| --- | --- |
| O=C(Cn1nc2c3sc(N4CCCC4)nc3ncn2c1=O)Nc1ccc(F)cc1 | 718 s |
| CCOc1ccc(-c2csc3c(=O)n(Cc4cccnc4)cnc23)cc1OCC | 699 s |
| COc1ccc(CN(C(=O)COc2ccc(Cl)cc2C)C2CCS(=O)(=O)C2)cc1OC (centres undefined) | 938 s |
| CC1CS(=O)(=O)N(c2ccc(S(=O)(=O)Nc3ccccc3C(F)(F)F)cc2)C1=O (centres undefined) | 819 s |
| CCN(CC)c1ccc(NC(=O)C2Cc3cc(S(=O)(=O)N4CCCC4)ccc3N2C(C)=O)c(C)c1 (centres undefined) | 676 s |
| O=C(NCC1(c2ccccc2)CCOCC1)c1c(F)cccc1Cl | 769 s |
| CNC(=O)CN(C)C(=O)c1cc2c(s1)N(C)CCCC2 | 686 s |
| O=C(NCc1ccc(F)cc1F)c1sc2ncccc2c1-n1cccc1 | 1020 s |
| CC(=O)Oc1cc2c(s1)CCN(C(C(=O)C1CC1)c1ccccc1F)C2 (centres undefined) | 739 s |
| COC(=O)c1cc(OC)c(OC)cc1NC(=O)c1ccc(CSc2ccccc2)o1 | 1070 s |
| CCOC(=O)Cc1csc(NC(=O)Cc2csc(Nc3nc(C)cc(C)n3)n2)n1 | 769 s |
| CCCNC(=O)C1CCCN(c2nc3ncn(CC(=O)Nc4ccc5c(c4)OCO5)c(=O)c3s2)C1 (centres undefined) | 640 s |
| COCC(=O)Nc1cccn2nc(C(C)C)nc12 | 717 s |
| CCn1ccc2c(cc(C(=O)NCc3ccc4c(c3)OCO4)n2C)c1=O | 676 s |
| CCn1cc(CC(=O)NCc2cccc(OC)c2)c2cccnc21 | 695 s |
| CCN1CCn2cc(S(=O)(=O)Nc3ccc(C)cc3C)cc2C1=O | 746 s |
| Cc1c(NC(=O)C(C)C)c(=O)n(-c2ccccc2)n1C | 745 s |
| CN1CCN(CCNC(=O)C2CCN(Cc3cn(C)c4ccc(Cl)cc34)CC2)CC1 | 570 s |
